Results: patent publication US20100144704A1, “Method of reducing amyloid-beta peptide levels using a bisdioxopiperazine” (priority 2006, published 2010)
Several values for one entry are separate records, joined by “and”; a condition that tells them apart may be missing. Equal entries are not always repeated. Blank lines part the entries; values can stand above or below the compound they belong to.

Legend:
APP = APP Western blot in SHSY-5Y cell culture; assay type: cell-based, human; settings: for APP, percent control levels / APP, % control levels: 16 h; for APP, % control levels: FIG. 5 study
Protocol: (§1) Cell Culture. The human neuroblastoma cell line, SHSY-5Y, was obtained from the American Type Culture Collection, culture medium was from Mediatech, Inc. (Herndon, Va.) and FCS from HyClone (Logan, Utah). Drug Treatment. […] Cells were allowed to grow in complete media (10% FCS, 2 mM glutamine in DMEM) for 2 days to reach 70% confluence. Thereafter, spent media was removed and replaced with fresh media (2 mL DMEM) containing 0 to 100 μM of freshly prepared compounds (clioquinol, razoxane and dexrazoxane. Cells were incubated at 37° C., 5% CO2 for 16 h. APP Western Blot and cell viability. Fifteen μg of protein from each sample was mixed with Laemmli buffer, boiled for 5 min at 100° C., and loaded onto a 10% SDS PAGE gel (Novex, San Diego, Calif.). […] The blots were incubated in secondary antibody, anti-mouse IgG—conjugated to horseradish peroxidase, for 30 min. Thereafter, samples were detected by chemiluminescence. Cell viability was assessed by a sensitive MTT assay. Values were expressed as the mean of between four and six independent assays and were statistically compared to control values. (See FIGS. 3-5).

[1] = test system: SHSY-5Y human neuronal cells; assay: Cellular toxicity / cell viability by MTT assay; assay type: cell-based
Protocol: as §1

[2] = razoxane compared to dexrazoxane
From the text: The pharmacokinetics of razoxane compared to those of dexrazoxane.

[3] = cited from earlier work
Aβ1-42 peptide = assay: Brain Aβ1-42 by sandwich ELISA in double transgenic mice after 21 day razoxane treatment; assay type: in vivo; settings: for Average Conc, Aβ1-42: group average; for Conc, Aβ1-42: individual mouse cerebral cortex sample
Protocol: (§2) Double transgenic male mice (APP Swedish mutation+PS1 mutation) express human amyloid precursor protein (APP) and amyloid-β peptide (Aβ) within their brain and form amyloid depositions from 4 months onward. Razoxane (ICRF 159) was administered by intraperitoneal (i.p.) injection once daily for 21 consecutive days to a group of such mice, 5 to 6 months of age and approximately 22 to 28 g in weight. […] Within three hours of the final razoxane/vehicle administration, animals were killed, their brain exposed and a 50-80 mg sample of cerebral cortex collected and frozen at […].

Aβ1-40 peptide = assay: Brain Aβ1-40 by sandwich ELISA in double transgenic mice after 21 day razoxane treatment; assay type: in vivo; settings: for Average Conc, Aβ1-40: group average; for Conc, Aβ1-40: individual mouse cerebral cortex sample
Protocol: as §2

[4] = cited from earlier work; remark: listed apart in the source
[5] = in vivo; cited from earlier work
[6] = 30 mg/kg once daily x 21 days, male 5 month old transgenic mice
[7] = razoxane 20 mg/kg i.p. once daily x 21 days
[8] = razoxane 30 mg/kg i.p. once daily x 21 days

SMILES: Oc1c(I)cc(Cl)c2cccnc12 [Clioquinol]
- APP, percent control levels (APP; 0.5 μM, FIG. 4): 108%
- APP, percent control levels (APP; 2 μM, FIG. 4): 116%
- APP, percent control levels (APP; 10 μM, FIG. 4): 82%
- Effect at lowering APP (in words) (APP; FIG. 4): without affect
- Cell viability ([1]; 10 μM, associated with the 18% APP decline, FIG. 4): loss of cell viability

- Elimination from the body [2]: eliminated more rapidly
SMILES: CC(CN1CC(=O)NC(=O)C1)N1CC(=O)NC(=O)C1 (single isomer, unassigned; (+)) [Dexrazoxane, (+)-1,2-Bis(3,5-dioxopiperazin-1-yl)propane]
- APP, % control levels (APP; 0.5 μM): 87%
- APP, % control levels (APP; 10 μM): 59%
- Aqueous solubility (in words) [3]: more soluble

- Elimination from the body [2]: slower elimination
SMILES: CC(CN1CC(=O)NC(=O)C1)N1CC(=O)NC(=O)C1 (racemic) [Razoxane, 1,2-bis(3,5-dioxopiperazin-1-yl)-propane]
- APP, percent control levels (APP; 0.5 μM, FIG. 4): 81%
- APP, % control levels (APP; 0.5 μM): 75%
- APP, percent control levels (APP; 2 μM, FIG. 4): 60%
- APP, percent control levels (APP; 10 μM, FIG. 4): 53%
- APP, % control levels (APP; 10 μM): 42%
- Cellular toxicity against SHSY-5Y cells ([1]; concentrations up to 100 μM, 16 h, FIG. 3): well tolerated and without toxicity
- Reduction of brain Aβ1-42 compared to the control group (Aβ1-42 peptide; [6]): 29%
- Average Conc, Aβ1-42 (Aβ1-42 peptide; [7]): 564 pM
- Conc, Aβ1-42 (Aβ1-42 peptide; [7]): 489 pM and 545 pM and 533 pM and 562 pM and 553 pM and 701 pM
- Average Conc, Aβ1-42 (Aβ1-42 peptide; [8]): 326 pM
- Conc, Aβ1-42 (Aβ1-42 peptide; [8]): 365 pM and 504 pM and 471 pM and 216 pM and 27.2 pM and 370 pM
- Reduction of brain Aβ1-40 compared to the control group (Aβ1-40 peptide; [6]): 46%
- Average Conc, Aβ1-40 (Aβ1-40 peptide; [7]): 375 pM
- Conc, Aβ1-40 (Aβ1-40 peptide; [7]): 316.435 pM and 386.757 pM and 378.84 pM and 406.557 pM and 290.284 pM and 468.154 pM
- Average Conc, Aβ1-40 (Aβ1-40 peptide; [8]): 213 pM
- Conc, Aβ1-40 (Aβ1-40 peptide; [8]): 162.992 pM and 310.189 pM and 295.464 pM and 129.452 pM and 134.783 pM and 244.537 pM
- Plasma half-life ([4]; humans): about 3.5 hours
- Oral bioavailability ([4]; in vivo, po): orally bioavailable
- Tolerance in humans ([4]; oral dose of 125 mg, twice a day for five days each week for up to two years): relatively well tolerated
- Crossing of the blood/brain barrier [5]: cross the blood/brain barrier
- Aqueous solubility (in words) [3]: relatively low aqueous solubility
